# From patent US10376476B2, “Panicein compounds, compositions and uses thereof” (CENTRE NATIONAL DE LA RECHERCHE SCIENTIFIQUE, priority 2014, dated 2019)
# How the values were obtained:
# [1] = biological target: T1, mutant Patched G509VD513Y (hPtcVXXXY) expressed in yeasts (Homo sapiens, UniProt Q13635, D513Y/G509V); experiment: Doxorubicin efflux from yeasts (intracellular dxr fluorescence); format: cell-based; conditions: hPtc-YXXXG-yeasts (mutant Patched), 10 μM paniceins, 10 min, 5 mM 2-deoxy-D-glucose
# T1 construct: MAP; expressed in transfected cells; host or cells: Saccharomyces cerevisiae K699
# T1 sequence (Q13635 1-1447 G509V/D513Y): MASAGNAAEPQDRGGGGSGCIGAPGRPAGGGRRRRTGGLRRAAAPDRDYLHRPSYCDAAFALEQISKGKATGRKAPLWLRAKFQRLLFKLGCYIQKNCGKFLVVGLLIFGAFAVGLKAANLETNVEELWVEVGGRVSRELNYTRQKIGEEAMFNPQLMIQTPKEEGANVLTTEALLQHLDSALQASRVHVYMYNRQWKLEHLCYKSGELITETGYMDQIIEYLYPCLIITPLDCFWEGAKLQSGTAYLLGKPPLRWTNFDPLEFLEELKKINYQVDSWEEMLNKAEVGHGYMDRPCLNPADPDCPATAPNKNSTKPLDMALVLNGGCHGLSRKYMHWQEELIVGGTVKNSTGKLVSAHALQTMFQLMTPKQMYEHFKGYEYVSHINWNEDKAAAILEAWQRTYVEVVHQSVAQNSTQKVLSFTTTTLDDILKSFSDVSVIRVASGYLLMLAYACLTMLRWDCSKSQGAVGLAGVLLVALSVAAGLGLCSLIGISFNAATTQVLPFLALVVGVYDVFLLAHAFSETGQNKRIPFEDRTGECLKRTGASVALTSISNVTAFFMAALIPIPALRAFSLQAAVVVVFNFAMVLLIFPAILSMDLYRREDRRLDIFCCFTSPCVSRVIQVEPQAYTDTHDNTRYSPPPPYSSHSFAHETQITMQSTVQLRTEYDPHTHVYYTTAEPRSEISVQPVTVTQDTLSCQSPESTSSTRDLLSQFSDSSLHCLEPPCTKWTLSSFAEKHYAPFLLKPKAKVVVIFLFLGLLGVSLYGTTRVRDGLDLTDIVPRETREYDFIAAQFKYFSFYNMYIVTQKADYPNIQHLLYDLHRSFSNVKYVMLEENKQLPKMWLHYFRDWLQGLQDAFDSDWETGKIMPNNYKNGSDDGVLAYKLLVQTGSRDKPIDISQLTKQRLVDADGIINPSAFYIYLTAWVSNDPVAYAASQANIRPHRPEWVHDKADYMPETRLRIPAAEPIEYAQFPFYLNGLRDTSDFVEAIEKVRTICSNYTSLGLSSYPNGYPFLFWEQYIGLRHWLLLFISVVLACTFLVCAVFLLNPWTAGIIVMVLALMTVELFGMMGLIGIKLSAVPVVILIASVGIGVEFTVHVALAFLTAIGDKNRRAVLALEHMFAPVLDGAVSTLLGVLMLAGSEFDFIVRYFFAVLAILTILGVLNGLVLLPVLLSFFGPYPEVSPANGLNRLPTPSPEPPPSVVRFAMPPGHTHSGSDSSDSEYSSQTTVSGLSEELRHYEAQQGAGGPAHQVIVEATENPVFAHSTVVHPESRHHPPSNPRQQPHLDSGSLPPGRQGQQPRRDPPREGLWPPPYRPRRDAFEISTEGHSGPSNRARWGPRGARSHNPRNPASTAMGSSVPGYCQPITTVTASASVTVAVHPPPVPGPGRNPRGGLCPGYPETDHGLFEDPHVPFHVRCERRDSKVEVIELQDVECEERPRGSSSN
# Protocol: A. Compound P5 inhibits doxorubicin efflux from melanoma cells MeWo and A375. Cells were grown on cover-slips, incubated for 2 hour at 37° C. with 10 μM doxorubicin and quickly rinsed with phosphate buffer (pH 7.4). One cover-slip of each cell line was immediately fixed for doxorubicin charge control. The other cover-slips were incubated with buffer supplemented with DMSO or 10 μM of compound P5 30 min under gentle shaking and immediately fixed. Dxr intracellular fluorescence was visualized by epifluorescence and analyzed using Image J software on more than 30 cells of 3 different fields for each condition. The results were analyzed using the Student t test in which significance is attained at P<0.05 (**: P<0.005, ***: P<0.0005). B. Paniceins inhibit doxorubicin efflux from Patched-expressing yeasts. Yeasts expressing wild-type Patched (hPtc, in black), mutant Patched G509VD513Y (hPtcVXXXY, in grey), and control yeasts (in white) were incubated in buffer supplemented with 5 mM of 2-deoxy-D-glucose and 10 μM dxr for 2 hours at 4° C. After centrifugation and supernatant removing, one sample was immediately fixed for charge control and the other samples were resuspended in buffer containing 5 mM of 2-deoxy-D-glucose supplemented with DMSO or 10 μM of paniceins 10 minutes at 25° C. with gentle shaking. After centrifugation and supernatant removing, samples were fixed and deposited on coverslips for epifluorescence microscopy observation. Dxr intracellular fluorescence quantification was carried out using Image J software on more than 30 yeasts on 3 different fields for each condition. The results were analyzed using the Student t test in which significance is attained at P<0.05 (*).
# On yeasts: Yeasts expressing Patched (hPtc), mutant Patched (hPtcG509VD513Y), or control yeasts were washed with cold water, resuspended at an OD600 of 10 in Hepes-NaOH buffer (pH 7.0) supplemented with 5 mM of 2-deoxy-D-glucose, and incubated with 10 μM doxorubicin for 2 hours at 4° C. in the cold room on a rotating wheel protected from light. Yeasts were centrifuged and the supernatant was removed. One sample was immediately fixed with 4% paraformaldehyde for doxorubicin loading control. The other samples were resuspended in Hepes-NaOH buffer (pH 7.0) containing 5 mM of 2-deoxy-D-glucose supplemented with DMSO or 10 μM of paniceins, and incubated 10 minutes at 20° C. with gentle shaking in a Benchmark Multi-therm shaker protected from light. Samples were centrifuged for 1 minute at 18,000 g, supernatants were removed and yeasts were fixed with 4% paraformaldehyde. 10 μL of each sample were deposited on a coverslip and observed by epifluorescence microscopy using an objective 63x and filters for Alexa 594. Quantification of doxorubicin intracellular fluorescence was carried out using Image J software on more than 30 yeasts on 3 different fields for each condition. The results were analyzed using the Student t test in which significance is attained at P <0.05.
# In order to see if Paniceins inhibit dxr efflux through Patched inhibition, inventors compared dxr efflux on yeasts over-expressing human Patched and control yeasts. After loading with dxr, yeasts were centrifuged and fixed for dxr loading control (LC), or resuspended in buffer supplemented with DMSO or paniceins for efflux measurements. After 10 min a 20° C., yeasts were collected, fixed and deposited on cover-slips. 2-deoxy-D-glucose was added in buffer during loading and efflux in order to inhibit ATP-binding cassette (ABC) transporters. Dxr fluorescence intensity of at least 30 yeasts was measured for each experiment. FIGS. 6A and 12A show the mean fluorescence intensity of 3 independent experiments. […] This was confirmed using yeasts over-expressing Patched mutant VXXXY. […] Yeasts over-expressing hPtcVXXXY are less resistance to growth inhibition by dxr than yeasts over-expressing wild-type hPtc (Bidet et al., 2012).
# keratinocytes HaCaT = experiment: Doxorubicin efflux from cells (intracellular dxr fluorescence); format: cell-based
# A375 melanoma cells = experiment: Vemurafenib cytotoxicity, viability test using neutral red; format: cell-based, human; conditions: A375, 10 μM panicein A hydroquinone
structure (smiles),measurement,setting,value
"C/C(=C\Cc1cc(O)ccc1O)CCc1c(C)c(O)c(O)c(C=O)c1C [P2, Panicein C]",Efflux (%) of dxr,[1],39%
"C/C(=C\Cc1cc(O)ccc1O)CCc1c(C)cc(O)c(C=O)c1C [P3, Panicein B3]",Efflux (%) of dxr,[1],32%
"Cc1cc(O)c(C=O)c(C)c1CCC1(C)C=Cc2cc(O)ccc2O1 (stereo not drawn) [P4, Panicein B2]",Efflux (%) of dxr,[1],38%
"COc1cc(C)c(CC/C(C)=C/Cc2cc(O)ccc2O)c(C)c1C [P5, Panicein A hydroquinone]",increase of dxr in cells (dxr fluorescence intensity) after efflux,keratinocytes HaCaT,contrary to “healthy” keratinocytes HaCaT
same,Efflux (%) of dxr,[1],42%
same,increase of vemurafenib cytotoxicity,A375 melanoma cells,strongly increases
